Test results as given in patent publication US5098933A, “Pharmaceutically useful Michael addition products of unsaturated aldehydes and ketones and ascorbic acid” (Theracel Corporation, priority 1990, dated 1992).

Columns and labels:
splenocytes = assay: Immunotoxicity--Multi-dose: total spleen cell counts (Coulter Counter); type: in vivo, mice
Method: (§1) The immunotoxicological potential of KCPBL was evaluated in this experiment in which the study drug was administered to CD-1 mice for fourteen days (100 or 1000 mg/kg/day), either perorally (by gavage) or intravenously (tail vein). On the fifteenth day, the mice were weighed and sacrificed. The spleen, lungs, liver, kidneys and thymus were removed from each animal, fixed in formalin and histopathologically evaluated. In addition, a differential white blood cell count was obtained for a peripheral blood sample as well as the following tests performed: spleen cell counts (performed with Coulter Counter) and lymphocyte stimulation assays using PHA, CON-A and PWM techniques.
(§2) The study incorporated five treatment groups into its design: group 1, sham intravenous control; group 2, 100 mg/kg/day perorally; group 3, 1000 mg/kg/day intravenously; group 4, 100 mg/kg/day perorally, and, group 5, 100 mg/kg/day intravenously. Mice were administered KCPBL daily for a total of fourteen days via the oral (0.2 ml of a 147.5 mg/ml solution or a 29.5 mg/ml solution by gavage) and intravenous route (0.2 ml of 147.5 mg/ml solution or a 29.5 mg/ml solution by tail vein) to achieve a dose of 100 or 1000 mg/kg, respectively. The test dose was prepared fresh daily and dissolved in sterile non-pyrogenic saline. On the fifteenth day the mice were weighed, sacrificed, and the spleens, lungs, livers, kidneys and thymuses removed. These organs were weighed and, except for the spleens, the formalin-fixed organs were analyzed by a veterinary pathologist. Only two randomly-selected sets of animal organs per treatment group were histopathologically evaluated since the remaining three animals were used to isolate splenic lymphocytes for use in cellular immunoassays.
(§3) A leukocyte differential was obtained on peripheral blood samples and spleen cell counts (performed with Coulter Counter), and an IL-2 induction assessment as well as standard lymphocyte stimulation assays using PHA, CON-A and PWM conducted.

splenic lymphocytes [1] = assay: Immunotoxicity--Multi-dose: lymphocyte blastogenesis / stimulation (PHA, Con A, PWM); type: in vivo, mice
Method: as §1
as §2, with “The study incorporated five treatment groups into its design: group 1, sham intravenous control; group 2, 100 mg/kg/day perorally; group 3, 1000 mg/kg/day intravenously; group 4, 100 mg/kg/day perorally, and, group 5, 100 mg/kg/day intravenously.” left out
as §3
The individual spleens of three mice from control and test groups were processed to isolate lymphocytes and the protocols for lymphocyte blastogenesis, IL-2 induction and assay were performed. The remaining two mice in each group were sacrificed and their lungs, liver, kidney, and spleen were fixed in formalin and sent to AnMed Biosafe for histopathologic examination.

[2] = Pharmacokinetics of 3H-KCPBL in mice, plasma levels; type: in vivo; conditions: intravenous, mouse, through 6 hours
Method: The objectives of these tests were to evaluate the pharmacokinetics of radiolabeled KCPBL when administered either perorally or intravenously to mice.
3H-KCPBL was prepared from the pure drug substance KCPBL by an exchange procedure using high specific activity tritiated water. The product was purified by reverse phase high performance liquid chromatography and then freeze-dried. Analysis was carried out on ^3 H-KCPBL reconstituted in water. Specific activity was not less than 185 GBg/mmol or 5 Ci/mmol and the molecular weight of the product is 258. HPLC analysis for purity was performed using a Zorbax C8 column (25 cm×4.6) eluting with water: acetonitrile (930:70).
In the mouse studies, 3H-KCPBL was dissolved in sterile pyrogen-free saline containing […] of non-radiolabeled KCPBL. The final concentration of the test article in an injection volume of 0.1 ml was 66.6 mcCi. One tenth ml was administered intravenously for plasma level and tissue biodistribution studies. Peroral dosages were prepared in a manner consistent with this approach.
Mice were given intravenous doses of 3H-KCPBL to evaluate its biodistribution in this laboratory animal model.

splenic lymphocytes [3] = assay: Immunomodulation panel: lymphocyte blastogenesis (Con-A, PHA, PWM); type: in vivo, C57BL/6J mice
Method: Daily intraperitoneal injections of KCPBL were administered to normal animals and immunological responsiveness to mitogens and specific antigen evaluated.
Doses and schedule--Doses were selected to bracket the range generally known to be immunostimulatory in past experiments, 1, 10, and […] daily for four days.
As an assessment of immunopathology in the above screening test panel, the cellularity of the spleen was evaluated by determination of the total number of splenocytes harvested. Humoral-mediated immunity was measured by enumerating IgM plaque-forming cells to the T-dependent antigen sheep erythrocytes. Cell-mediated immunity was evaluated as described above by determination of the ability of the splenocytes to produce the lymphokine interleukin-2 in response to stimulation by the mitogen concanavalin-A. Another measurement of cell-mediated immunity was the responsiveness of the splenic lymphocytes to the mitogens concanavalin-A (Con-A); phytohemagglutinin (PHA) and pokeweed mitogen (PWM) in the lymphocyte blastogenesis assay. In the latter test, the activation and proliferation of the lymphocytes to the mitogens represents the capability of the cells to sequentially pass from G0 to G1 and the S phse of the cell cycle. The responsiveness of the cells was measured by the uptake of radiolabeled 14C-thymidine.

Compound: O=C1CCC(C2(O)C(=O)OC3C(O)COC32O)C1 (centres unmarked) [KCPBL]
- Total Splenocytes (splenocytes; 100 mg/kg IV (group 5)): 4.03 ± 0.33 × 10^7 Cells
- Total Splenocytes (splenocytes; 100 mg/kg P.O. (group 4)): 4.15 ± 0.18 × 10^7 Cells
- Total Splenocytes (splenocytes; 1000 mg/kg IV (group 3)): 3.12 ± 0.67 × 10^7 Cells
- Total Splenocytes (splenocytes; 1000 mg/kg P.O. (group 2)): 3.73 ± 0.30 × 10^7 Cells
- total spleen cell counts, significance (splenocytes; treated vs control): not statistically significantly different
- Lymphocyte Blastogenesis, Con A (splenic lymphocytes [1]; 100 mg/kg IV (group 5)): 17292 ± 3202
- Lymphocyte Blastogenesis, PHA (splenic lymphocytes [1]; 100 mg/kg IV (group 5)): 8513 ± 3950
- Lymphocyte Blastogenesis, PWM (splenic lymphocytes [1]; 100 mg/kg IV (group 5)): 7125 ± 3899
- Lymphocyte Blastogenesis, RPMI (splenic lymphocytes [1]; 100 mg/kg IV (group 5)): 234 ± 116
- Lymphocyte Blastogenesis, Con A (splenic lymphocytes [1]; 100 mg/kg P.O. (group 4)): 18948 ± 3543
- Lymphocyte Blastogenesis, PHA (splenic lymphocytes [1]; 100 mg/kg P.O. (group 4)): 13432 ± 4075
- Lymphocyte Blastogenesis, PWM (splenic lymphocytes [1]; 100 mg/kg P.O. (group 4)): 6733 ± 1181
- Lymphocyte Blastogenesis, RPMI (splenic lymphocytes [1]; 100 mg/kg P.O. (group 4)): 307 ± 52
- Lymphocyte Blastogenesis, Con A (splenic lymphocytes [1]; 1000 mg/kg IV (group 3)): 14471 ± 2913
- Lymphocyte Blastogenesis, PHA (splenic lymphocytes [1]; 1000 mg/kg IV (group 3)): 4473 ± 1181
- Lymphocyte Blastogenesis, PWM (splenic lymphocytes [1]; 1000 mg/kg IV (group 3)): 4402 ± 3641
- Lymphocyte Blastogenesis, RPMI (splenic lymphocytes [1]; 1000 mg/kg IV (group 3)): 203 ± 122
- Lymphocyte Blastogenesis, Con A (splenic lymphocytes [1]; 1000 mg/kg P.O. (group 2)): 15151 ± 627
- Lymphocyte Blastogenesis, PHA (splenic lymphocytes [1]; 1000 mg/kg P.O. (group 2)): 8189 ± 1602
- Lymphocyte Blastogenesis, PWM (splenic lymphocytes [1]; 1000 mg/kg P.O. (group 2)): 4896 ± 1547
- Lymphocyte Blastogenesis, RPMI (splenic lymphocytes [1]; 1000 mg/kg P.O. (group 2)): 244 ± 97
- LSA response to PHA, CON-A and PWM lectins (splenic lymphocytes [1]; treated vs sham-injected controls): comparable
- serum level profile [2]: immediate peak serum drug level followed by a steep decline
- Lymphocyte Blastogenesis, PHA (splenic lymphocytes [3]; 1.0 mg/kg i.p.): 5176 ± 1185 Counts per minute
- Lymphocyte Blastogenesis, PWM (splenic lymphocytes [3]; 1.0 mg/kg i.p.): 1977 ± 540 Counts per minute
- Lymphocyte Blastogenesis, RPMI (splenic lymphocytes [3]; 1.0 mg/kg i.p.): 95 ± 66 Counts per minute
- Lymphocyte Blastogenesis, Con-A (splenic lymphocytes [3]; 10 mg/kg i.p.): 10074 ± 1881 Counts per minute
- Lymphocyte Blastogenesis, PHA (splenic lymphocytes [3]; 10 mg/kg i.p.): 5590 ± 864 Counts per minute
- Lymphocyte Blastogenesis, RPMI (splenic lymphocytes [3]; 10 mg/kg i.p.): 95 ± 54 Counts per minute
- reactivity of splenocytes to PHA (splenic lymphocytes [3]; drug-treated animals): reactivity to PHA was not affected
- responsiveness of splenocytes to Con-A (splenic lymphocytes [3]; drug-treated animals): slightly more responsive to Con-A
- responsiveness of splenocytes to PWM (splenic lymphocytes [3]; drug-treated animals): significant increases in the responsiveness
